Results reported in patent US20140309229A1, “METHODS FOR SELECTING AND TREATING CANCER IN PATIENTS WITH IGF-1R/IR INHIBITORS” (priority 2011, published 2014).

Columns and labels:
CW-2 = assay: MTS proliferation assay; format: cell-based, human
Procedure: (§1) Cell lines and in vitro cytotoxicity assay. Cells were maintained at 37° C. under standard cell culture conditions. Cells were plated at an optimized density for each cell line per well in 96-well microtiter FALCON® plates, incubated overnight, and then exposed to a serial dilution of drug. […] The results were expressed as an IC50, which is the drug concentration required to inhibit cell proliferation to 50% of that of untreated control cells. The mean IC50 and standard deviation (SD) from multiple tests for each cell line were calculated.
(§2) In vitro Cellular Proliferation Assays.

CaR-1 = assay: MTS proliferation assay; format: cell-based, human
Procedure: as §1, §2

COLO320DM = assay: MTS proliferation assay; format: cell-based, human
Procedure: as §1, §2

KM12SM = assay: MTS proliferation assay; format: cell-based, human
Procedure: as §1, §2

Procedure for pIGF-1R/pIR and pAKT: Cells were serum-starved overnight, then either stimulated with 50 ng/ml IGF-1, IGF-2 or insulin for 10 minutes, or unstimulated. Cell lysates were subjected to MSD for measuring both total and phosphorylated IGF-1R and AKT. The phospho-protein values were normalized to the corresponding total protein levels (e.g., pIGF-1R/IGF-1R). The ligand-stimulated activation of IGF-1R or AKT is presented as the ratio of the pIGF-1R/IGF-1R or pAKT/AKT value in IGF-1, IGF-2 or insulin-stimulated cells vs. the value in the non-stimulated cells. […] 20 ug of total protein from cell lysates were subjected to Western blot analysis.
Western Blots and MesoScale Discovery (MSD) Multiplex Plate Based Assays. […] Antibodies for pIGF-IR/pIR, pAkt, p-p44/42 MAPK and IRS2 for Western blot and MSD were purchased from Cell Signaling Technology and Santa Cruz Biotechnology (see figure legends) except for β-ACTIN® sourced from Millipore. Protein signals from Western blots were visualized using ODYSSEY® Imaging (Li-Cor Biosciences). Measurement of phospho- and total IGF-1R, IR, IRS-1, Akt and MAPK was also determined by commercially available multiplex plate based assays (MSD, Gaithersburg Md.). […] Measurement of IRS2 was determined using customized assays utilizing MSD technology.
Cell lysates were subsequently subjected to Western blot analysis and evaluated for pIGF-1R/pIR and pAKT.

**Q.** Which results are given for `C[C@@]1(C(=O)Nc2ccc(F)nc2)CCCN1c1nc(Nc2cc(C3CC3)n[nH]2)c2cccn2n1` [BMS-754807, (2S)-1-(4-((5-cyclopropyl-1H-pyrazol-3-yl)amino)pyrrolo[2,1-f][1,2,4]triazin-2-yl)-N-(6-fluoro-3-pyridinyl)-2-methyl-2-pyrrolidinecarboxamide]?
**A.** Sensitivity Classes (CW-2; CW-2): R (“R” refers Resistant); IC50 (CW-2; Homo sapiens, CW-2, 72 h): 586 nM; Sensitivity Classes (CaR-1; CaR-1): R (“R” refers Resistant); IC50 (CaR-1; Homo sapiens, CaR-1, 72 h): 375 nM; Sensitivity Classes (COLO320DM; COLO320DM): S (“S” refers Sensitive); Sensitivity to BMS-754807 (COLO320DM; COLO320DM, preliminary panel of 45 CRC cell lines): Sensitive (a sensitive cell line was classified as one with an IC50 of ≦50 nmol/L); IC50 (COLO320DM; Homo sapiens, COLO 320DM, 72 h): 41 nM; IC50 (KM12SM; Homo sapiens, 72 h): 37 nM; Sensitivity Classes (KM12SM; KM12SM): S (“S” refers Sensitive); Sensitivity to BMS-754807 (KM12SM; KM12SM, preliminary panel of 45 CRC cell lines): Sensitive (a sensitive cell line was classified as one with an IC50 of ≦50 nmol/L); pIGF-1R/pIR and pAKT levels (pIGF-1R/pIR and pAKT): inhibited by BMS-754807 treatment in a dose-dependent manner
